Reference: US20230159516A1 (priority 2020, published 2023)

Tested on: SARS-CoV-2
Format: cell-based

O=C(Oc1cncc(Cl)c1)c1cccc2c1CCN2 [CTRL-1720S]
block of the cytopathic effect (CPE) of SARS-CoV-2: significantly block the cytopathic effect

COc1cccc2[nH]c(C(=O)N[C@@H](CC(C)C)C(=O)N[C@@H](C[C@@H]3CCNC3=O)C(=O)c3nc4ccccc4s3)cc12 [GRL-2420S]
block of the cytopathic effect (CPE) of SARS-CoV-2: significantly block the cytopathic effect
